Test results taken from patent publication US9974767B2, “Statins in the treatment of muscular dystrophies and myopathies” (University of Washington, priority 2014, dated 2018).
“And” between values parts separate entries of the source, which are not always exact repeats. Identical values can stand only once.

Tests used:
Assay type in all cases: in vivo, mouse
[1] = tested on: mdx mice; assay: Plasma creatine kinase (CK) activity as measure of whole-body muscle damage
[2] = tested on: mdx mice; assay: Diaphragm specific force, ex vivo muscle strips
From the text: Therefore, it is often difficult to fully evaluate the therapeutic potential of these compounds. When compared with results obtained with a clinically relevant dystrophin gene therapy approach, the magnitude of increased diaphragm force in Simvastatin-treated mice (25%) is quite impressive. Specifically, systemic delivery of a micro-dystrophin-expressing AAV vector to mdx mice provides a slightly lower (20%) average improvement in diaphragm specific force.
In mdx mice, the diaphragm is the most severely affected skeletal muscle and diaphragm dysfunction is a major cause of respiratory failure in DMD.
The diaphragm most closely recapitulates the functional deficits and fibrotic deposition that occur in DMD. […] The replacement of muscle fibers with fibrotic connective tissue is a major cause of impaired muscle force generation in DMD and therefore an important therapeutic target. […] Quantification of total collagen I levels in diaphragm muscles by hydroxyproline assay also indicated a 50% reduction in fibrosis for mdx Sim mice (FIG. 13E).
Diaphragm function, ex vivo, was measured as described previously. Briefly, diaphragm strips (2-3 mm wide) were perfused with a physiological solution bubbled with 95% O2-5% CO2. Stimulation was provided by two platinum electrodes, attached along the sides of the chamber. A lengthforce curve, established using 120 Hz isometric contractions (300 ms duration spaced 1 min apart, established the optimum length (length producing maximum tetanic force), which was later used to calculate the specific force (force divided by cross-sectional area).

[3] = tested on: CD68; assay: CD68 immunofluorescence of TA muscle sections (inflammation); settings: mdx Sim vs mdx Con, 8 months treatment
Protocol: Next, we quantified the extent of inflammation, a key feature of the dystrophic muscle pathology, by immunofluorescence of TA muscle sections with CD68, a marker of macrophages and other inflammatory cells.
Muscles were imbedded in O.C.T compound and frozen in isopentane cooled in liquid nitrogen. Cryosections (10 μm thick) were placed on a glass side. Sections were fixed with either ice-cold methanol or 2% paraformaldehyde for 5 to 10 min. Some sections were stained with Haemotoxylin and Eosin (H & E) using standard procedures. For immunofluorescence, sections were incubated in blocking buffer (0.8% BSA and 1% fish gelatin in PBS) for 45 min. Primary antibodies; Fibronectin (Sigma), CD68 (Abcam), Caveolin3 (BD Biosciences), and Myosin Heavy Chain 1, 2A and 2B (Developmental Studies Hybridoma Bank) were added for 1 hr 30 min at room temperature. AlexaFluor conjugated secondary antibodies (Life Technologies) were then added for 1 hr 30 min. In some experiments, DAPI was also added to detect nuclei. […] For fluorescence quantification (CD68, fibronectin and myosin heavy chains), images were converted to grayscale in Image J and a threshold applied to calculate the area of fluorescence as a percent of the total area of the section. Fibers with central nuclei were expressed as a percent of total fibers with detectable nuclei (ie. both central and peripheral). […]

[4] = tested on: H2O2 (ROS); assay: H2O2 levels in diaphragm muscle homogenates, amplex red assay; settings: old mdx mice
From the text: FIG. 14A. Western blot (top) showing the levels of the autophagy proteins LC3A (upper band) and LC3B (lower band) for mdx Con and mdx Sim. GAPDH is shown as a loading control. Pooled data (bottom) for LC3A and LC3B. **P<0.01 compared to mdx Con. FIG. 14B. Hydrogen peroxide (H2O2) levels in diaphragm muscle homogenates, as quantified with a fluorescent amplex red assay. *P<0.05 compared to mdx Con. FIG. 14C. Atrogin-1 mRNA levels in quadriceps muscles were quantified by qPCR and normalized to the internal control (HPRT). *P<0.05 compared to WT Con. **P<0.01 compared to WT Con.
To further explore this idea, we also measured the levels of the ROS (H2O2) in diaphragm muscle homogenates. […] This highlights important differences between dystrophic muscle, where statins reduce oxidative stress derived from NOX2, and normal muscle susceptible to statin myopathy, where mitochondrial ROS increases oxidative stress.

[5] = tested on: atrogin-1; assay: Atrogin-1 mRNA in quadriceps muscles, qPCR; settings: old mdx Sim mice
From the text: Another pathway that has been implicated in statin myopathy is muscle atrophy mediated by atrogin-1, a ubiquitin-protein ligase that stimulates protein breakdown. Atrogin-1 is induced by statin treatment in animal models and humans with statininduced myopathy. However, in DMD, atrogin-1 levels are consistently lower than in normal muscle and are not increased at any stage of the disease.
Total RNA was isolated from quadriceps of WT, mdx, and simvastatintreated mdx mice using Trizol (Life Technologies) and further purified using an RNAeasy Kit (Qiagen). Real-time quantitative RT-PCR (qPCR) was performed using TaqMan chemistry and the ABI 7000 sequence detection system with 50 ng of RNA, ABI Fast Virus 1-Step Master Mix reagents, and primer sets specific for atrogin-1 and HPRT (Applied Biosystems). Data were obtained from 5 mice in each treatment group and normalized to the internal HPRT control.

## CCC(C)(C)C(=O)O[C@H]1C[C@@H](C)C=C2C=C[C@H](C)[C@H](CC[C@@H]3C[C@@H](O)CC(=O)O3)[C@H]21 [Simvastatin, simvastatin]
[1]; mdx Sim vs mdx Con, oral 5-10 mg/kg/day for 8 months from 3 weeks of age
  reduction in plasma creatine kinase (CK) activity level: 85%
[1]; mdx mice, 8 months, drinking water 10 mg/kg/day
  reduction of CK levels compared to untreated mdx mice: ~8 fold
[2]; mdx Sim vs mdx Con, 8 months treatment, stimulation 1 to 120 Hz
  improvement of diaphragm specific force: 25% and 20-25%
[2]; mdx Sim vs mdx Con, 8 months treatment, stimulation 1 to 120 Hz, listed as simvastatin
  improvement of diaphragm specific force: 20-25%
[2]; old mdx mice, 2 months treatment from 12 months of age, 10 to 120 Hz, vs untreated mdx
  improvement of diaphragm specific force: 20-30%
[3]
  reduction of inflammatory cell levels (CD68): ~70%
[4]
  less H2O2 compared to mdx Con: 30%
[5]
  atrogin-1 mRNA levels: not significantly different from mdx Con
